{"source": "patent US10189774B2", "about": "(priority 2006, dated 2019)", "key": {"[1]": {"system": "human myeloma cell line derived from the ascites of a patient with multiple myeloma", "conditions": "mouse, in vivo"}, "[2]": {"system": "Human Gastric Cancer HGC-27 cell", "assay": "cells", "format": "cell-based", "conditions": "for EC50: Homo sapiens, HGC-27, 72 h, read-out: EC50, HGC-27 cell growth inhibition; for HGC-27 cell growth inhibition rate: 72 hours"}, "[3]": {"conditions": "pH 7.4"}, "[4]": {"assay": "physchem", "conditions": "water"}}, "note": "Values joined by “and” are separate entries in the source; they are usually repeats but may differ in a detail not shown here. Equal values may be shown once. Read-outs that look alike come from different tables or passages of the source.", "data": [{"smiles": "CCN(CC)CCOC(=O)CCCc1ccc(N(CCS(C)(=O)=O)CCS(C)(=O)=O)cc1.Cl", "note": "[diethylaminoethyl 4-[bis(2-methylsulfonylethyl)amino]benzenebutyrate.HCl]", "values": [{"measurement": "Life Elongation Rate", "setting": "[1]", "result": "269% and 244%"}, {"measurement": "None Disease Rate", "setting": "[1]", "result": "4/7 and 3/7"}, {"measurement": "Survival Period", "setting": "[1]", "result": "122.5 ± 1.7 days and 111.2 ± 1.9 days"}]}, {"smiles": "O=C(O)CCCc1ccc(N(CCCl)CCCl)cc1", "note": "[chlorambucil]", "values": [{"measurement": "Life Elongation Rate", "setting": "[1]", "result": "127% and 198%"}, {"measurement": "None Disease Rate", "setting": "[1]", "result": "2/7 and 3/7"}, {"measurement": "Survival Period", "setting": "[1]", "result": "57.8 ± 1.5 days and 90.2 ± 1.9 days"}, {"measurement": "EC50", "setting": "[2]", "result": "> 100", "unit": "µM"}, {"measurement": "HGC-27 cell growth inhibition rate", "setting": "[2]; final concentration 2 μm", "result": 0.3, "unit": "%"}, {"measurement": "HGC-27 cell growth inhibition rate", "setting": "[2]; final concentration 5 μm", "result": 1.6, "unit": "%"}, {"measurement": "HGC-27 cell growth inhibition rate", "setting": "[2]; final concentration 25 μm", "result": 25.0, "unit": "%"}, {"measurement": "HGC-27 cell growth inhibition rate", "setting": "[2]; final concentration 50 μm", "result": 34.9, "unit": "%"}, {"measurement": "HGC-27 cell growth inhibition rate", "setting": "[2]; final concentration 75 μm", "result": 34.2, "unit": "%"}, {"measurement": "HGC-27 cell growth inhibition rate", "setting": "[2]; final concentration 100 μm", "result": 39.2, "unit": "%"}, {"measurement": "HGC-27 cell growth inhibition rate", "setting": "[2]; final concentration 200 μm", "result": 47.7, "unit": "%"}, {"measurement": "HGC-27 cell growth inhibition rate", "setting": "[2]; final concentration 500 μm", "result": 81.0, "unit": "%"}, {"measurement": "In vitro penetration rate (apparent flux) of parent compounds", "setting": "[3]; human", "result": 0.01, "unit": "mg/cm^2/h"}]}, {"smiles": "Br.CCN(CC)CCOC(=O)CCCc1ccc(N(CCS(C)(=O)=O)CCS(C)(=O)=O)cc1", "note": "[diethylaminoethyl 4-[bis(2-methylsulfonylethyl)amino]benzenebutyrate•HBr]", "values": [{"measurement": "In vitro penetration rate (apparent flux) of HPPs", "setting": "[3]", "result": 0.94, "unit": "mg/cm^2/h"}]}, {"smiles": "Br.CCN(CC)CCOC(=O)[C@H](Cc1ccc(N(CCCl)CCCl)cc1)NC(C)=O", "note": "[4-[bis(2-chloroethyl)amino]-N-acetyl-L-phenylalanine N,N-diethylaminoethyl ester hydrobromide]", "values": [{"measurement": "solubility", "setting": "[4]", "result": 300, "unit": "mg/mL"}, {"measurement": "Life Elongation Rate", "setting": "[1]; hydrobromide", "result": "287% and 266%"}, {"measurement": "None Disease Rate", "setting": "[1]; hydrobromide", "result": "4/7 and 3/7"}, {"measurement": "Survival Period", "setting": "[1]; hydrobromide", "result": "130.5 ± 1.6 days and 121.2 ± 1.8 days"}, {"measurement": "In vitro penetration rate (apparent flux) of HPPs", "setting": "[3]; human", "result": 1.10, "unit": "mg/cm^2/h"}]}, {"smiles": "N[C@@H](Cc1ccc(N(CCCl)CCCl)cc1)C(=O)O", "note": "[melphalan]", "values": [{"measurement": "Life Elongation Rate", "setting": "[1]", "result": "195% and 122%"}, {"measurement": "Survival Period", "setting": "[1]", "result": "88.5 ± 1.8 days and 55.7 ± 1.3 days"}, {"measurement": "In vitro penetration rate (apparent flux) of parent compounds", "setting": "[3]; human", "result": 0.01, "unit": "mg/cm^2/h"}]}, {"smiles": "CCN(CC)CCOC(=O)CCCc1ccc(N(CCCl)CCCl)cc1", "note": "[N,N-diethylaminoethyl 4-[bis(2-chloroethyl)amino]benzenebutyrate]", "values": [{"measurement": "EC50", "setting": "[2]", "result": "< 6", "unit": "µM"}, {"measurement": "HGC-27 cell growth inhibition rate", "setting": "[2]; final concentration 0.5 μm", "result": 25.5, "unit": "%"}, {"measurement": "HGC-27 cell growth inhibition rate", "setting": "[2]; final concentration 2 μm", "result": 34.7, "unit": "%"}, {"measurement": "HGC-27 cell growth inhibition rate", "setting": "[2]; final concentration 5 μm", "result": 46.9, "unit": "%"}, {"measurement": "HGC-27 cell growth inhibition rate", "setting": "[2]; final concentration 25 μm", "result": 54.6, "unit": "%"}, {"measurement": "HGC-27 cell growth inhibition rate", "setting": "[2]; final concentration 50 μm", "result": 81.6, "unit": "%"}, {"measurement": "HGC-27 cell growth inhibition rate", "setting": "[2]; final concentration 75 μm", "result": 93.4, "unit": "%"}, {"measurement": "HGC-27 cell growth inhibition rate", "setting": "[2]; final concentration 100 μm", "result": 94.7, "unit": "%"}, {"measurement": "HGC-27 cell growth inhibition rate", "setting": "[2]; final concentration 200 μm", "result": 94.8, "unit": "%"}, {"measurement": "HGC-27 cell growth inhibition rate", "setting": "[2]; final concentration 500 μm", "result": 94.8, "unit": "%"}]}, {"smiles": "CC(=O)O[C@H]1C(=O)[C@@]2(C)[C@H]([C@H](OC(=O)c3ccccc3)[C@]3(O)C[C@H](OC(=O)[C@H](O)[C@@H](NC(=O)c4ccccc4)c4ccccc4)C(C)=C1C3(C)C)[C@]1(OC(C)=O)CO[C@@H]1C[C@@H]2O", "note": "[taxol, Taxol]", "values": [{"measurement": "EC50", "setting": "[2]", "result": "~0.013", "unit": "µM"}, {"measurement": "HGC-27 cell growth inhibition rate", "setting": "[2]; final concentration 0.5 nM", "result": 10.3, "unit": "%"}, {"measurement": "HGC-27 cell growth inhibition rate", "setting": "[2]; final concentration 1 nm", "result": 21.6, "unit": "%"}, {"measurement": "HGC-27 cell growth inhibition rate", "setting": "[2]; final concentration 10 nm", "result": 45.0, "unit": "%"}, {"measurement": "HGC-27 cell growth inhibition rate", "setting": "[2]; final concentration 25 nm", "result": 76.9, "unit": "%"}, {"measurement": "HGC-27 cell growth inhibition rate", "setting": "[2]; final concentration 50 nm", "result": 85.2, "unit": "%"}, {"measurement": "HGC-27 cell growth inhibition rate", "setting": "[2]; final concentration 100 nm", "result": 92.2, "unit": "%"}, {"measurement": "HGC-27 cell growth inhibition rate", "setting": "[2]; final concentration 500 nm", "result": 94.7, "unit": "%"}, {"measurement": "HGC-27 cell growth inhibition rate", "setting": "[2]; final concentration 5000 nm", "result": 95.8, "unit": "%"}]}, {"smiles": "CS(=O)(=O)CCN(CCS(C)(=O)=O)c1ccc(CCCC(=O)O)cc1", "note": "[4-[bis(2-methylsulfonylethyl)amino]benzenebutanoic acid]", "values": [{"measurement": "In vitro penetration rate (apparent flux) of parent compounds", "setting": "[3]; human", "result": 0.01, "unit": "mg/cm^2/h"}]}, {"smiles": "Br.CCN(CC)CCOC(=O)CCCc1ccc(N(CCCl)CCCl)cc1", "note": "[N,N-diethylaminoethyl 4-[bis(2-chloroethyl)amino]benzenebutyrate.HBr]", "values": [{"measurement": "Life Elongation Rate", "setting": "[1]", "result": "282% and 253%"}, {"measurement": "None Disease Rate", "setting": "[1]", "result": "4/7"}, {"measurement": "Survival Period", "setting": "[1]", "result": "128.5 ± 1.3 days and 115.2 ± 2.1 days"}, {"measurement": "In vitro penetration rate (apparent flux) of HPPs", "setting": "[3]", "result": 1.01, "unit": "mg/cm^2/h"}]}]}
